The nature of experiment [1]: Luminescence Cell-Based Dose Confirmation HTS to Identify Activators of 5'UTR Stem-Loop Driven Alpha-Synuclein mRNA Translation in H4 Neuroglioblastoma Cells. [Related pubchem assays: 1829 (Project Summary), 1814 (Primary HTS)]. The experiment is classed as functional.
Experiment [2] is described as follows: Luminescence Cell-Based Dose Response HTS to Identify Activators of Luciferase Translation or Activity in H4 […] Cells. [Related pubchem assays: 1829 (Project Summary), 1814 (Primary HTS)]. Type of experiment: functional.
The target of experiment [3] is T1, Corticotropin-releasing factor receptor 2/Corticotropin-releasing factor-binding protein (Homo sapiens, UniProt P24387+Q13324).
T1 sequence (Q13324 whole entry): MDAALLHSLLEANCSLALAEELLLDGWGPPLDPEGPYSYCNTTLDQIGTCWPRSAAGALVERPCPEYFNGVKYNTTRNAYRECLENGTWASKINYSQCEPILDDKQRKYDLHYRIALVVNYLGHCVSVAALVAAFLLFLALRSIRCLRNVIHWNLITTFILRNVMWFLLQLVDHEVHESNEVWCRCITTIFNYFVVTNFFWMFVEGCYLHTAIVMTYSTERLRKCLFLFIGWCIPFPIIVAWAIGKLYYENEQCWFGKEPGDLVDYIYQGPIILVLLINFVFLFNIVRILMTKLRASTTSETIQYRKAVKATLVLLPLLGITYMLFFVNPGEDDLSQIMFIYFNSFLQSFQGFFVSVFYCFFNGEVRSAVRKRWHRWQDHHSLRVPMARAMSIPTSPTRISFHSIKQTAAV
T1 sequence (P24387 whole entry): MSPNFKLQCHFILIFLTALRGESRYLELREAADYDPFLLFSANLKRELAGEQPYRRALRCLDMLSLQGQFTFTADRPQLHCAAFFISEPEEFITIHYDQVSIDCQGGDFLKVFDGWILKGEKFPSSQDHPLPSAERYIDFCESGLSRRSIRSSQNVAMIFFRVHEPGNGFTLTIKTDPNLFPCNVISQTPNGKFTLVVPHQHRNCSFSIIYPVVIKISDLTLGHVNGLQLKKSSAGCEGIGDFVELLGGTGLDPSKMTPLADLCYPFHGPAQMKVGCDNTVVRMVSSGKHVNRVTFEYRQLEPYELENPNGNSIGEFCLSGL
Briefly: activators of CRF receptor 2 with binding protein – uHTS hits, confirmation (AID 602473). The experiment is classed as functional. The following applies: read-out: EC50_Mean.

Experiment [4] concerns the target T1, Corticotropin-releasing factor receptor 2/Corticotropin-releasing factor-binding protein. Briefly: Dose Response confirmation of uHTS hits for small molecule antagonists of the CRF-binding protein and CRF-R2 receptor complex. Type of experiment: functional. The following applies: read-out: IC50_Mean.
In experiment [5] the test system is H4. In words: Luminescence Cell-Based Dose Response HTS to Identify Activators of 5'UTR Stem-Loop Driven Prion Protein mRNA Translation in H4 Neuroglioblastoma Cells. [Related pubchem assays: 1829 (Project Summary), 1814 (Primary HTS)]. Type of experiment: functional. The following applies: Homo sapiens.
Experiment [6] deals with T2, Streptokinase A (Streptococcus pyogenes serotype M1, UniProt P10520).
T2 sequence (P10520 whole entry): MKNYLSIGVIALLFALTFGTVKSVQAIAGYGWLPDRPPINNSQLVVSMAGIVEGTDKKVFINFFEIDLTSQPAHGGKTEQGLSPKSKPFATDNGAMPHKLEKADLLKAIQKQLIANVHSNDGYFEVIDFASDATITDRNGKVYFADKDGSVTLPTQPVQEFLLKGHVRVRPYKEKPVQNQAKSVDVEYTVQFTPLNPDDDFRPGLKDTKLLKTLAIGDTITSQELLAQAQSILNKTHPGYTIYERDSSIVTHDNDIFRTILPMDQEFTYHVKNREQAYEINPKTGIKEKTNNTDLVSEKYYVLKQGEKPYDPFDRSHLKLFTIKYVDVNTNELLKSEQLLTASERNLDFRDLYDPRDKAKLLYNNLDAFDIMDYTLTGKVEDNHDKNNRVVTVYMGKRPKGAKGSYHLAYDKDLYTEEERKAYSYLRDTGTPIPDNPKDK
In words: S. pyogenes streptokinase expression inhibitors, potency, dose response, plasminogen activation absorbance, OD405 (AID 1914).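 Further: secreted streptokinase activity via plasminogen activation per viability signal from cell pellet.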 Type of experiment: functional, Streptococcus pyogenes M1 GAS.

Experiment [7] deals with Streptococcus. Briefly: Group A Streptococcus viability loss, dose response, counter-screen for streptokinase expression inhibitor project, luminescence, BacTiterGlo (AID 1915).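 Further: potency for reduction of bacterial viability or growth.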 The experiment is classed as functional, organism-based.
Experiment [8] deals with Streptococcus sp. 'group A'. In words: growth inhibition of control SK(-) GAS strain, dose response, counter-screen for streptokinase expression inhibitor project, luminescence, kanamycin, BacTiterGlo, confirmation (AID 1900). Type of experiment: functional, organism-based. (The purpose of a counterscreen is to sort out artefacts and off-target activity.)
Experiment [9] deals with Luciferin 4-monooxygenase (Photinus pyralis, UniProt P08659). Briefly: firefly luciferase enzyme inhibitors, dose response, biochemical, luminescence (AID 1891).
Experiment [10] can be described thus: Luminescence Cell-Based Dose Confirmation HTS to Identify Inhibitors of Platelet Dense Granule Release. [Related pubchem assays: 1663 (Primary HTS), 1678 (Summary of Project)]. The experiment is classed as functional.
Experiment [11] can be described thus: inhibitors of SNCA 5'UTR-driven reporter translation, confirmation, H4 neuroglioma cells, luminescence (AID 1988). The experiment is classed as functional, cell-based.
Experiment [12] in a line: inhibitors of firefly luciferase expression or activity, dose response, H4 neuroglioma cells, luminescence (AID 1990). Type of experiment: functional, cell-based.
Experiment [13] can be described thus: Luminescence Cell-Based Dose Response HTS to Identify Inhibitors of 5'UTR Stem-Loop Driven Prion Protein mRNA Translation in H4 Neuroglioblastoma Cells. [Related pubchem assays: 1827 (Project Summary), 1813 (Primary HTS)]. Type of experiment: functional.
Experiment [14] in a line: control 3'UTR Renilla luciferase suppression, dose response, counter-screen for Shn3 inhibitor project, cell-based, Clone20-Shn3RL, cherry-picked (AID 624133). Type of experiment: functional.
Experiment [15] can be described thus: Shn3 3'UTR reporter inhibitors, dose response, cell-based, Clone20 osteoblasts, firefly luciferase, cherry-picked (AID 624132).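 Further: firefly luciferase luminescence from reporter carrying the Shn3 3'UTR in osteoblasts.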 Type of experiment: functional.
Experiment [16] is described as follows: HepG2 cell cytotoxicity, dose response, cytotoxicity control for Shn3 inhibitor project, CellTiter-Glo, cherry-picked (AID 624134). The experiment is classed as functional, cell-based.
Experiment [17] can be described thus: inhibitors of intracellular T. cruzi replication, confirmation, NIH3T3 host cells, beta-gal luminescence (AID 2044).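 Further: intracellular parasites grown in NIH/3T3 mouse fibroblasts as host cells; luminescent beta-galactosidase reporter signal from transgenic T. cruzi replicating inside host cells; inhibitors lower the luminescence signal.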 The experiment is classed as functional, cell-based.
The nature of experiment [18]: cytotoxicity toward NIH3T3 fibroblasts, dose response, counter-screen, cell-based, ATP luminescence, mouse fibroblasts (AID 2010).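 Further: cells exposed to compound for about 90 hours before reading.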 The experiment is classed as functional.

The source made the active and inactive calls. For most assays here, no stated cut-off is given here; in the data, actives have a measured EC50 and inactives only a lower limit.

Luciferin 4-monooxygenase, sequence (P08659 whole entry): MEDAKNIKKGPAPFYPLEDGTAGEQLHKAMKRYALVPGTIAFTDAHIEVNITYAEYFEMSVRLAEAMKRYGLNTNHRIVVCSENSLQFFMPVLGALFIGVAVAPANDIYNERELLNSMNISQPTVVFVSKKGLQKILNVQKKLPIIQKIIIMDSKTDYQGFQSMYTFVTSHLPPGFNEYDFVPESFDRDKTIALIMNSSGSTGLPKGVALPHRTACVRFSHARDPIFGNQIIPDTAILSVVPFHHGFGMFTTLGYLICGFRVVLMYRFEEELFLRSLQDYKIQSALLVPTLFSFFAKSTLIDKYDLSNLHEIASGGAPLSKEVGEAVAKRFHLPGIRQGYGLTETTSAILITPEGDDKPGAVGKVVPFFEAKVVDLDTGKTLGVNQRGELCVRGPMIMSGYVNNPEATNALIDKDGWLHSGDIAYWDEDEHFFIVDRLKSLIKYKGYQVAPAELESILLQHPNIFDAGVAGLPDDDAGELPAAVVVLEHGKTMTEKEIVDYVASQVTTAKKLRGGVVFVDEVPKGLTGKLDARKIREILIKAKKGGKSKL

In the case of `Cc1c(C(=O)NC(=S)NCC(C)C)oc2ccccc12`, the EC50 in [1] is 27.2 µM (active); in [2], 63.2 µM (active).
With `COCCn1c(SCC(=O)c2ccc3c(c2)OCCO3)nnc1-c1ccco1`, in [3], the EC50 was > 53 µM (inactive). The IC50 in experiment [4] is > 47.1 µM (inactive).
As to `CC1CCCCN1C(=O)CSc1nc2ccsc2c(=O)n1Cc1ccccn1` (stereo not drawn), the EC50 was 9.84 µM (active) in [5], 46.3 µM (active) in experiment [1] and 5.86 µM (active) in experiment [2].
On to `CC(Oc1ccc(F)cc1)C(=O)Nc1ccccc1N1CCCCC1` (stereo not drawn), for which the EC50 in [6] is 10.3 µM (active); in [7], 19.9 µM (active); in [8], 11.8 µM (active); in [9], 27.3 µM (active); in experiment [10], 21 µM (active).
For the compound `COC(=O)c1cc(NC(=O)c2c(Cl)nc3sccn23)cc(C(=O)OC)c1`, the EC50 is 9.13 µM (active) in [11], 12.3 µM (active) in experiment [12] and 10.6 µM (active) in experiment [13].
Regarding `CCc1c(C)nc2ncnn2c1Nc1ccc(C(C)=O)cc1`, the EC50 was 57.4 µM (active) in experiment [5], 34.4 µM (active) in experiment [1] and 92 µM (active) in experiment [2].
Turning to `COc1ccc(OC)c(C(=O)Cn2nnc(-c3ccc(N4CCOCC4)cc3)n2)c1`, the EC50 in experiment [5], in experiment [1] and in experiment [2] was > 120 µM (not active) each time.
The term AC50 denotes the midpoint of the concentration-response curve, whichever way the signal moves. For the compound `C[C@H]1CN=C(N(C)C)N1CC1CCC(C(C)(C)C)CC1` (stereo partly drawn), the half-maximal activity concentration (AC50) was 20.3 µM (active) in experiment [14], 2.27 µM (active) in experiment [15] and 41.5 µM (active) in [16].
In the case of `CC(C)c1ccc(NCCC(=O)c2cccs2)cc1`, the EC50 was 61.8 µM (active) in experiment [5], 4.14 µM (active) in experiment [1] and 33.1 µM (active) in experiment [2].
As for `Brc1ccc2c(c1)OCCOCCOc1cc(Br)ccc1OCCOCCOCCO2`, the EC50 was > 120 µM (not active) in experiment [11]; 14.1 µM (active) in experiment [12]; 103 µM (active) in experiment [13]; 1.04 µM (active) in experiment [17]; > 60 µM (not active) in experiment [18].
On to `COc1ccc(NC(=O)CSc2nnc(N)s2)c([N+](=O)[O-])c1`, for which the EC50 in experiment [3] is > 53 µM (inactive). Moreover, the IC50 in experiment [4] is > 47.1 µM (inactive).
Take `O=C1CCCC/C1=C/Nc1ccc2c(c1)OCO2`: the results for the EC50 in [5], in experiment [1] and in experiment [2] were > 120 µM (not active), 8.5 µM (active) and 7.34 µM (active), respectively.
Regarding `Cc1ccc(C(=O)NC(=S)NCC2CCCO2)cc1Br` (stereo not drawn), the EC50 in experiment [5] is 45.5 µM (active); in experiment [1], 11 µM (active); in experiment [2] it was 21 µM (active).
`C/C=C(/C)C(=O)Nc1cccc(C2=NOC3(C2)C[C@H](C(N)=O)N(C(=O)COc2ccc(Cl)cc2)C3)c1` (stereo partly drawn): the EC50 in experiment [11] was > 120 µM (not active); in experiment [12], > 120 µM (not active); in experiment [13] it was 87.6 µM (active).
As for `O=C(Nc1cccc(-c2nc3ccccc3o2)c1)c1ccc(N2C(=O)C3C4C=CC(C4)C3C2=O)cc1` (stereo not drawn), the results for the EC50 in [11], in experiment [12] and in experiment [13] were 9.98 µM (active), 10.5 µM (active) and > 120 µM (not active), respectively.
As to `C=CCNc1nc(N)c([N+](=O)[O-])c(NC2CCCCC2)n1`, the EC50 is > 120 µM (not active) in experiment [11], 28.9 µM (active) in [12] and 0.21 µM (active) in experiment [13].
With `CCOC(=O)N1CCN(C(=O)CCNS(=O)(=O)c2ccc3c(c2)c(=O)n(C)c(=O)n3C)CC1`, the EC50 in [5], in [1] and in experiment [2] was > 120 µM (not active) in each case.
In the case of `CCN1CCN(C(=O)C2=CC(c3ccc(OC)cc3)=NS(=O)(=O)N2C)CC1`, in experiment [3], the EC50 was > 53 µM (inactive). Also, the IC50 in experiment [4] is > 47.1 µM (inactive).
As for `c1ccc2c(c1)oc1c(NCC3CCCO3)ncnc12` (stereo not drawn), the EC50 in experiment [5] was 7.09 µM (active); in experiment [1] it was 8.39 µM (active); in [2], 19 µM (active).
Regarding `Cc1ccsc1C1Nc2ccccc2-c2nc3ccccc3n21` (stereo not drawn), the EC50 was 26.1 µM (active) in experiment [5], 24.3 µM (active) in experiment [1] and 60.7 µM (active) in [2].
Turning to `NC(Cc1ccccc1Sc1ccccc1)=NO`, the EC50 in experiment [3] was > 53 µM (inactive). The IC50 in experiment [4] is > 47.1 µM (inactive).
For `CN(Cc1cccs1)C(=O)Cc1csc(-c2ccccc2)n1`, the EC50 in experiment [5] was 15.9 µM (active); in [1], 32 µM (active); in [2], 10.1 µM (active).
On to `COc1ccc(CCN2CCCC(CN(C)C(=O)c3cc(C)oc3C)C2)cc1` (stereo not drawn), for which the EC50 is 32.7 µM (active) in experiment [5]; 41.5 µM (active) in experiment [1]; 31.9 µM (active) in [2]; 0.149 µM (active) in experiment [17]; > 60 µM (not active) in [18].
As to `COc1ccc2ccccc2c1CNCCCN1CCOCC1`, the EC50 in [3] was > 53 µM (inactive). Besides, the IC50 in [4] is > 47.1 µM (inactive).
On to `O=C(NCc1cc(C(F)(F)F)ccc1Cl)c1cccc2c1C(=O)c1ccc(N3CCCCC3)cc1S2(=O)=O`, for which the EC50 in [3] was 6.26 µM (active).
Consider `COc1ccc(CC(N)c2csc(NC(=O)Nc3cccc(C(F)(F)F)c3)n2)cc1` (stereo not drawn), for which the AC50 in [14] was 7.68 µM (active); in experiment [15], 8.4 µM (active); in experiment [16] it was 11 µM (active).
For `O=C(NCCCN1CCOCC1)C(=O)N/N=C/c1c2ccccc2cc2ccccc12`, the EC50 was 9.11 µM (active) in experiment [11], 12.2 µM (active) in experiment [12] and 13.9 µM (active) in [13].
Take `Cc1ccc(-c2nn(-c3ccccc3)cc2/C=N/n2c(S)nnc2-c2ccncc2)cc1`: the EC50 in [5] was 34.1 µM (active); in experiment [1], > 120 µM (not active); in experiment [2], 34.3 µM (active).
Turning to `COc1cccc(/C=N/Nc2nnc(C)n2N)c1OCc1ccccc1Cl`, the EC50 in experiment [11], in [12] and in experiment [13] was > 120 µM (not active) throughout.
Turning to `Cc1ccc(C(=O)N/N=C/c2ccc(-c3cccc(C(F)(F)F)c3)o2)cn1`, the EC50 in experiment [11] was 11.9 µM (active); in experiment [12], > 120 µM (not active); in experiment [13] it was > 120 µM (not active).

The values are drawn from ChEMBL document CHEMBL1201862, “PubChem BioAssay data set” (2004).
